Experimental findings from patent publication US20190367449A1, “PHENYLCREATINE, ITS USE AND METHOD FOR ITS PRODUCTION” (priority 2017, published 2019) are described below.

The nature of data set [1]: Stability of phenylcreatine compared to creatine in blood serum (RP-HPLC peak areas). The class given is in vitro ADME, human. The method, then:
The study of the stability of phenylcreatine and creatine in aqueous solution and in human blood was carried out as follows. For the preparation of solutions of test substances on an analytical balance the exactly weighed phenylcreatine and creatine were taken. The calculated amount of double-distilled water was added to them to obtain a concentration of 1 mg/ml. A part of the solution was diluted 10 times, and the sample was immediately analyzed. Further, that solution was kept at room temperature and after 3 hours the analysis was repeated. Further according to the method described in Dunnett, Harris & Orme (1991) Reverse phase ion-pairing high performance liquid chromatography of phosphocreatine, creatine and creatinine in equine muscle. Scand. J. Clin. Lab. Invest. 51, 137-141, page 139, aliquot (c), creatinine, creatine and phosphocreatine were removed from the samples used for obtaining of the blood serum for mixing, to obtain more accurate results. 1 ml of water or prepared according to the method above blood serum was added to 200 μl of a solution in water of initial substance with a concentration of 2-3 mg/ml, shaken and a sample of 200 μl volume was immediately taken and initial concentration was analyzed. Then the solution was placed in a vibration thermostat at 37° C. and an aliquot of 200 μl was taken in 0.5, 1 and 3 hours of incubation. 20 μl of a 10% solution of trichloroacetic acid was added to the selected sample and kept for 15 min at a temperature of minus 24° C., centrifuged at 6000 g for 5 min to precipitate the plasma proteins, supernatant was collected and its analysis was conducted. The study of the stability of phenylcreatine compared to creatine in an aqueous solution and blood was carried out using reversed-phase HPLC using a chromatographic system Agilent 1220 Infinity LC System (USA). To assess the stability of the analytes, the peak areas of the compounds were compared at the beginning of the experiment and at selected intervals (Table 2).

The nature of data set [2]: Body weight of mice on administration of creatine and phenylcreatine. The class given is in vivo. Particulars: 20 days daily into the stomach, creatine 0.3 mg per gram, phenylcreatine 50 mg per kg, control 6.4%. The method, then: In order to find out whether phenylcreatine is a functional analogue of creatine, and also how much its effect is related to the strength of creatine, the functional state of the mice was assessed, namely, the body weight was measured, activity and endurance in the test on white mongrel mice were assessed—males weighing 18-22 g.
Two experimental groups of mice and one control group (10 mice in each group) were selected. Initially, the animals were of equal mass. The animals were kept in accordance with the rules adopted by the European Convention for the Protection of Vertebrates used for experimental and other purposes (European Convention for the Protection of Vertebrates used for Experiments or for Other Scientific Purposes (EST No. 123), Strasbourg, 18 March 1986, M., 1990, 12 pp.). Animals were kept in standard vivarium conditions. The animals were killed by decapitation in accordance with the “Rules for carrying out work using experimental animals”, approved by order of the Ministry of Health of the USSR No. 742 of 13 Nov. 1984 (Bolshakov O P, Neznanov N G, Babakhnyan R V Didactic and ethical aspects of research on biomodels and on laboratory animals//Qualitative clinical practice. 2002. No. 1. P.58-61).
Within 20 days, the animals received an aqueous solution of creatine in a dosage of 0.3 mg per gram of weight. […]

Where [3] appears, read: 0 h, initial, peak area relative to the beginning of the experiment.

For the compound `N=C(N)N(CC(=O)O)Cc1ccccc1` [phenylcreatine, N-benzyl-N-carbamimidoylglycine], the “Stability in a blood serum” value in data set [1] (setting [3]) is on record as 100%; in data set [1] (0.5 h incubation at 37° C.), 100%; in data set [1] (1 h incubation at 37° C.), 99%; in data set [1] (3 h incubation at 37° C.) it was 96%. The “Concentration in the blood (in words)” value in data set [1] (for 3 hours) is recorded as “remained practically unchanged”. Moreover, the Weight gain in data set [2] was determined as 15.4%.

Regarding `CN(CC(=O)O)C(=N)N` [creatine, 2-(methylguanine)-ethane acid], the “Stability in a blood serum” value in data set [1] (setting [3]) is reported as 100%; in data set [1] (0.5 h incubation at 37° C.), 98%; in data set [1] (1 h incubation at 37° C.), 67%; in data set [1] (3 h incubation at 37° C.), 52%. Moreover, the Weight gain in data set [2] is 9%.
